Results on three molecules are retold here after patent publication US9980509B2, “Modification of bacterial profile of tobacco” (R.J. REYNOLDS TOBACCO COMPANY, priority 2013, dated 2018).

Molecules are shown by their SMILES.

One experiment concerns Lactobacillus. The experiment in a line: Lactobacillus (anaerobic) counts on MRS from field-treated tobacco leaf. The experiment is classed as in vivo. As for the experimental part: (§1) Dark-air cured tobacco is treated five hours prior to harvest with one or more of a probiotic bacteria solution, and enzyme solution, and/or a 3% sodium chloride salt solution. The solution is applied using a backpack sprayer. Solutions are based on a 100 gallon solution per acre, using recommended plant spacings and dose per plant is provided below.
(§2) The treated tobacco is harvested and mid-stalk leaf samples are analyzed for total bacteria counts, enteric bacteria counts, and Lactobacillus counts. Ten grams of each treated tobacco sample is placed in Butterfields Phosphate Buffer and diluted 10^−2 to 10^−8 times with water. The treated tobacco sample dilutions are applied to plate count agar (PCA) for total aerobic bacteria counts, to violet red bile agar (VRBA) for gram negative bacteria counts, and to MRS for anaerobic (Lactobacillus) counts. The number of bacterial colonies, as visualized under magnification, are counted to estimate the total number of colony-forming units per gram, CFU/g.

The test system of experiment [1] is enteric bacteria (gram negative bacteria). Description: Enteric bacteria counts (violet red bile agar) on field-treated tobacco leaf. The conditions noted are these: dark-air cured tobacco treated five hours prior to harvest; based on total bacteria counts before and after treatment. The experiment is classed as in vivo. On the procedure: as §1, §2
For a further experiment, the system named is total aerobic bacteria. The experiment in a line: Total bacteria counts (plate count agar) on field-treated tobacco leaf. Conditions: dark-air cured tobacco treated five hours prior to harvest; based on total bacteria counts before and after treatment. The experiment is classed as in vivo. As for the experimental part:
as §1, §2

Another experiment has as its system Dark tobacco plants. The conditions noted are these: for NNN content relative to the level of quantification: potassium chloride-treated samples 1, 2, 3, 5, and 6; for NNN content relative to the level of quantification / NAT content relative to the level of quantification: all potassium sulfate-treated samples; for NAT content relative to the level of quantification: potassium chloride-treated samples 3, 5, and 6.

Procedure for Dark tobacco plants: A first, 0.5 acre unplanted plot of soil was treated with a nitrogen-containing fertilizer comprising urea (N—P—K: 46-0-0) at a rate of 150 pounds per acre and a fertilizer incorporating diammonium phosphate and phosphorus (N—P—K: 18-46-0) at a rate of 180 pounds per acre by broadcast application. […] All fertilizer applications were incorporated into the soil after application.
A second, 0.5 acre unplanted plot of soil was treated with a nitrogen-containing fertilizer comprising urea (N—P—K: 46-0-0) at a rate of 150 pounds per acre and a fertilizer incorporating diammonium phosphate and phosphorus (N—P—K: 18-46-0) at a rate of 180 pounds per acre by broadcast application. The following day, a potassium chloride fertilizer (N—P—K: 0-0-60) was broadcast applied at 180 pounds per acre. All fertilizer applications were incorporated into the soil after application.
Dark tobacco plants were independently grown and were transplanted as seedlings (approximately 6-10 inches in length) to both plots (with 2450 plants per fertilized plot) four days after application of the potassium sources to the soil. […] The tobacco plants from both plots were harvested about three months after UAN treatment, and the harvested plants were moved to a traditional 1-acre air-curing barn. The plants were cured in the barn for about a month and a half.
After curing the plants, the leaves were removed from the stalks. The fourth leaf from the upper stalk position of six plants from each plot was taken for analysis. Each of these twelve leaves was prepared by removing the mid-rib stem from the leaf lamina.
The lamina was milled and the content of certain components was evaluated by liquid chromatography-mass spectrometry (LCMS). In particular, the leaves were analyzed in triplicate for TSNA content (namely, NNN, NNK, NAT, and NAB content).

In the case of `[Cl-].[Na+]` [3% NaCl solution, sodium chloride], in the experiment on Lactobacillus (dark-air cured tobacco treated five hours prior to harvest, based on total bacteria counts before and after treatment), the “Lactobacillus increase after treatment” value was “greater than 400%”. Further, the “Lactobacillus bacteria change after treatment” value in the experiment on Lactobacillus (treated tobacco material, Example 1) is “significant increase”. The “enteric bacteria reduction after treatment” value in experiment [1] came to 76%. In the experiment on total aerobic bacteria, the “total bacteria reduction after treatment” value is 94%.
In the case of `[Cl-].[K+]` [Potassium Chloride, potassium chloride], in the experiment with Dark tobacco plants (all cured leaf samples tested), the “NAT content compared with potassium sulfate treatment” value is reported as “significant decreases” and the “NNN content compared with potassium sulfate treatment” value is “significant decreases”. Further, in the experiment on Dark tobacco plants (cured leaf samples), the “average decrease NAT with respect to the potassium sulfate-treated samples” value is listed as “about 77%” and the “average decrease NNN with respect to the potassium sulfate-treated samples” value is listed as “about 69%”. Also, the “TSNA levels, particularly NNN and NNK, compared with leaves from potassium sulfate-treated soil” value in the experiment with Dark tobacco plants (cured leaves) is on record as “significantly lower”. Besides, in the experiment on Dark tobacco plants, the “NNN content relative to the level of quantification” value was “below the level of quantification” and the “NAT content relative to the level of quantification” value is “below the level of quantification”.
Take `O=S(=O)([O-])[O-].[K+].[K+]` [Potassium Sulfate, potassium sulfate, reference compound]: in the experiment with Dark tobacco plants, the “NNN content relative to the level of quantification” value is given as “well above such levels” and the “NAT content relative to the level of quantification” value is on record as “well above such levels”.
